Data: patent US20090324616A1, “DIFFERENTIAL CYTOKINE EXPRESSION IN HUMAN CANCER” (priority 2006, published 2009)

Experiments:
human Interleukin4 (IL4) = biological target: T1, human Interleukin4 (IL4) (Homo sapiens, UniProt P05112); test: IL-4-pull down assay; format: binding; conditions: 4 μg protein immobilized to Streptactin Sepharose, 400 ng IL4, 60 min; FIG. 10
T1 sequence (P05112 25-153): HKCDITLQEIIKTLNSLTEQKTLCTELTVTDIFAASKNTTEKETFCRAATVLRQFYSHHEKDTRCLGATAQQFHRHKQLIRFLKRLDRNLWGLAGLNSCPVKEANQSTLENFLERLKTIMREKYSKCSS
Procedure: To test for specific IL-4 binding of IL4R-Fc and IL4R-IL13R-Fc, 4 μg of both proteins, respectively, were immobilized to Streptactin Sepharose via their Strep-Tag. The immobilized proteins were subsequently incubated for 60 min with 400 ng of recombinantly expressed human Interleukin4 (IL4) in a total volume of 400 μl phosphate buffered saline. Subsequently the beads were washed and bound proteins were specifically eluted with desthiobiotin in a total volume of 40 μl elution buffer. Eluted proteins were finally analysed via SDS-PAGE and Silver staining.

breast cancer stem cells = test: Apoptosis of breast cancer spheres, combination with doxorubicin; format: cell-based; conditions: 10 μg pre-treatment 24 hrs, then 5 μM doxorubicin 24 hrs; for sensitisation for doxorubicin induced apoptosis compared with IL-4 specific antibody (positive control): FIG. 11B; for amount of apoptotic breast cancer stem cells: compared with Doxorubicin alone, FIG. 11A
Procedure: To test for the ability of IL4R-Fc and IL4R-IL13R-Fc to induce apoptosis, both proteins were added to the growth medium of breast cancer stem cells either alone or in combination with doxorubicin. […] The cells were stained with orange acridine/ethidium bromide (red: dead cells; green: viable cells).

[1] = system: primary colon cancer cells; test: Primary colon cancer cell viability (MTS), combination with oxaliplatin; format: cell-based; conditions: 10 μg pre-treatment 24 hrs, then 100 μM oxaliplatin 24 hrs; FIG. 11C
Procedure: On primary colon cancer cells the IL4R-Fc and IL4R-IL13R-Fc constructs were tested in combination with oxaliplatin treatment. Primary colon cancer cells pre-treated with PBS (w/o) or 10 μg of IL4R-Fc, IL4R-IL13R-Fc or anti IL4-antibody for 24 hrs and successively exposed for another 24 hrs to 100 μM oxaliplatin. The graphs show the percentage of cell viability measured by MTS analysis (CellTiter 96, Aquos, Promega).

[2] = system: Primary (adherent) cells from human colon cancer specimens; test: Viability of primary (adherent) colon cancer cells exposed to drugs; format: cell-based; conditions: cisplatinum 300 ng/ml, oxaliplatin 100 μM, TRAIL 200 ng/ml; FIG. 6a
Procedure: (§1) Survival and death assays. To evaluate apoptotic events the DNA staining and flow cytometry analysis were performed. The percentage of hypodiploid nuclei was evaluated as described in Stassi et al., Cancer Res. 2003, 63 (20):6784-90. Alternatively, human purified cancer cells were plated in 96-well plates in triplicate at 15,000 cells/well and cultured. The number of viable cells was detected by CellTiter Aqueous Assay Kit (Promega Corporation, WI, USA) following the instructions of manufacturer. HuT78 cells plated at […] and treated with CD95-activating antibody CH11 (200 ng/ml) were used as a positive control for cell death measurement.
(§2) To investigate the sensitivity of colon CSC to chemotherapeutic drugs, the viability of colon CSC spheroids exposed to cisplatinum (300 ng/ml) and oxaliplatin (100 μM) was measured, doses equivalent to those reached during cancer treatment in vivo. In addition, colon CSC were treated with the apoptosis-inducing death ligand TRAIL (200 ng/ml).

colon CSC = test: Viability of colon CSC spheroids exposed to drugs; format: cell-based, human; conditions: cisplatinum 300 ng/ml, oxaliplatin 100 μM, TRAIL 200 ng/ml, FIG. 6a
Procedure: as §1, §2

[3] = system: colon cancer generated by CSC; test: IL-4 neutralization in vivo, colon tumours generated by CSC; conditions: oxaliplatin i.p. once a week for 4 weeks, combined with control IgG; mice
Description: Tumours were allowed to grow for 10 days (size ˜0.2 cm^3) and then treated intra-tumourally with neutralising antibodies against IL-4 or control IgG twice a week for 3 weeks.

[4] = system: colon, breast, gastric and lung normal cells; test: Cell growth of normal cells exposed to IL-4; format: cell-based, human; conditions: 20 ng/ml of IL-4; FIG. 3b
Procedure: (§3) Human primary cell purification. Normal and cancer tissues were digested for 2 hours with collagenase (1.5 mg/ml) (Gibco BRL., Grand Island, N.Y.) and hyaluronidase (20 μg/ml) (Sigma Chemical Co., St. Louis, Mo.) as previously described (1). Once digested, cells were maintained on plastic in DMEM medium (EuroClone Ltd., West York, UK) at 37° C. in a humidified atmosphere of 5% CO2. Following 12 further hours of culture, cancer cells were allowed to grow in monolayer for the immunocytochemistry or detached with trypsin+EDTA for functional, protein expression and gene transcript levels analyses. For colon and gastric cells culture, plastic was coated with[…] of collagen (Calbiochem GmbH, Darmstadt, Germany). […]
Survival and death assays. […] The percentage of hypodiploid nuclei was evaluated as described in Stassi et al., Cancer Res. 2003, 63 (20):6784-90. […] The number of viable cells was detected by CellTiter Aqueous Assay Kit (Promega Corporation, WI, USA) following the instructions of manufacturer. […]
In order to investigate the possible involvement of IL-4 on tumour cell survival, colon, breast, gastric and lung normal cells were exposed to 20 ng/ml of IL-4 and analyzed for cell growth.

[5] = system: cFLIP, PED/PEA-15, Bcl-xL and Bcl-2 in normal colon, breast, gastric and lung cells; test: Anti-apoptotic protein expression in normal cells pre-incubated with IL-4; format: cell-based, human; conditions: gastric and lung cells pre-incubated with IL-4, FIG. 3c
Procedure: as §3
Protein isolation and western blotting analysis. […] Immunoblotting of Abs specific for actin (Ab-1, mouse IgM, Calbiochem, Darmstadt, Germany), CD95L (G2474, mouse IgG1, PharMingen, San Diego), CD95 (C-20, Santa Cruz Biotechnology), cFLIP (NF6 mouse IgG1, Alexis Biochemicals, Switzerland), PED/PEA-15 (rabbit IgG kindly provided by G. Condorelli), Bcl-2 (124, mouse IgG1, Upstate Biotechnology Inc.) and Bcl-XI (H-5, mouse IgG1, Santa Cruz Biotechnology) was detected by HRP-conjugated anti-mouse or anti-rabbit Abs (Amersham Biosciences UK Limited, England) and visualized with the chemiluminescence detection system (SuperSignal West Dura Extended duration Substrate, Pierce, Ill., USA). […]

With “IL4R-Fc: shortened extracellular domain of IL-4-Receptor-alpha (aa1-aa224) fused to the Fc-part of human IGHG1, with Flexstreptag-II” the “binding of human IL-4 (pull down, SDS-PAGE and Silver staining)” value (human Interleukin4 (IL4)) was “specific binding”, the “sensitisation for doxorubicin induced apoptosis compared with IL-4 specific antibody (positive control)” value (breast cancer stem cells) was “in the same range” and the “amount of apoptotic breast cancer stem cells” value (breast cancer stem cells) was “clearly increased”. For the same molecule, the “cell viability (MTS) in comparison with oxaliplatin treatment alone” value [1] was “reduced cell viability”.

With “IL4R-IL13R-Fc: IL-4-Receptor-alpha extracellular domain fused to IL13-receptor alpha extracellular domain and Fc-part of human IGHG1, with Flexstreptag-II” the “binding of human IL-4 (pull down, SDS-PAGE and Silver staining)” value (human Interleukin4 (IL4)) was “specific binding”, the “sensitisation for doxorubicin induced apoptosis compared with IL-4 specific antibody (positive control)” value (breast cancer stem cells) was “in the same range” and the “amount of apoptotic breast cancer stem cells” value (breast cancer stem cells) was “clearly increased”. The “cell viability (MTS) in comparison with oxaliplatin treatment alone” value [1] was “reduced cell viability”.

For O=C1[O][Pt]2([NH][C@@H]3CCCC[C@H]3[NH]2)[O]C1=O [oxaliplatin], the “sensitivity in vitro (viability)” value [2] was “some sensitivity”, the “sensitivity to drug-induced apoptosis (viability)” value (colon CSC) was “significantly resistant” and the tumour size [3] was “reduced tumour size”.

For N.N.[Cl][Pt][Cl] [cisplatinum], the “sensitivity in vitro (viability)” value [2] was “some sensitivity” and the “sensitivity to drug-induced apoptosis (viability)” value (colon CSC) was “significantly resistant”.

For TRAIL, the “sensitivity in vitro (viability)” value [2] was “some sensitivity” and the “sensitivity to drug-induced apoptosis (viability)” value (colon CSC) was “significantly resistant”.

B1: IL-4: human recombinant IL-4 (Euroclone), used at 20 ng/ml (protein)
chain: HKCDITLQEIIKTLNSLTEQKTLCTELTVTDIFAASKNTTEKETFCRAATVLRQFYSHHEKDTRCLGATAQQFHRHKQLIRFLKRLDRNLWGLAGLNSCPVKEANQSTLENFLERLKTIMREKYSKCSS
B1 was tested, and the “growth rate of colon, breast and lung normal cells” value [4] was “significantly increased” and the “protein levels of cFLIP, PED/PEA-15, Bcl-xL and Bcl-2” value [5] was “increased”.
